Assays:
mouse = assay: Acute toxicity in mouse (Table 10); format: in vivo
Procedure: The acute toxicity of the compounds of the invention was examined by the following method.
Male ddy-strain 5-week old mice, 4-6 per group, were used as experimental animals. Each of the compounds was dissolved or suspended in saline and administered perorally (p.o.) or intraperitoneally (i.p.), and the toxicity of the compound was assessed 24 hours after the administration.

Mouse neuro 2a cells = assay: Neurite outgrowth of mouse neuroblastoma neuro 2a cells (Table 7); format: cell-based; details: mean ± S.D.
Procedure: The biological activities in vitro of the compounds of formula (I) on cells of the nervous system were tested. The cells tested were mouse neuroblastoma cell line neuro-2a (Dainippon Pharmaceutical Co., Ltd.) which have been established as the cells of the nervous system. The above nerve cells were grown in an incubator at 37° C. in the presence of 5% carbon dioxide gas exponentially, and the cultured for a certain period of time together with the compounds of formula (I).
The effects of the compounds of this invention on neuroblastoma cells were examined by the following method.
Mouse neuro 2a cells in the logarithmic growth period in the Dulbecco's modified Eagle's medium [DMEM, containing 100 units/ml of penicillin G sodium and 100 micrograms/ml of streptomycin sulfate] containing 10% of FCS were seeded in a 48-well plate so that the number of cells was 1,000 cells/well, and cultured for one day in 0.25 ml of the culture fluid in each well in an incubator containing 5% of carbon dioxide gas in air at 37° C. The medium was replaced by a medium containing each antibiotics and FCS and the cells were further cultured for 24 hours. Then, a 4% aqueous glutaraldehyde solution in the same amount as a medium (0.25 ml) was added, and the culture was left to stand at room temperature for 2 hours to fix the cells. After washing with water, a 0.05% aqueous solution of methylene blue was added to stain the cells. Under a microscope, the number of cells containing outgrown neurites (cells having at least one neurite with a length of at least two times as large as the long diameter of the cell) was counted visually, and the proportion of these cells in the entire cells was calculated. The well was observed over 5 or more visual fields (at least 2% of the entire surface area of the well) continuous to the left and right from a mark put at the center of the well, and more than 200 cells was counted. One drug compound was used in 6 different concentrations at most, and three runs were conducted for each concentration.

[1] = test system: Mouse neuroblastoma cells NS-20Y; assay: Neurite appearance in mouse neuroblastoma NS-20Y cells (Table 8); format: cell-based;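 note: cells grown in polyornithine-coated dishes, with timing counted from the start of culture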
[2] = i.p., 24 hours after administration

| SMILES | Estimated LD50 (mouse; [2]) | Ratio of the number of cells having neurites with a length of at least two times as large as the diameter of cells to the total number of cells (Mouse neuro 2a cells; 0.1 mM) | The number of cells in which neurites appeared/Total number of cells ([1]; 24 hour, 0.2 mM) | Ratio of the number of cells having neurites with a length of at least two times as large as the diameter of cells to the total number of cells (Mouse neuro 2a cells; 0.3 mM) | The number of cells in which neurites appeared/Total number of cells ([1]; 48 hour, 0.1 mM) | Estimated LD50 (mouse; in vivo, ip) | other results |
| --- | --- | --- | --- | --- | --- | --- | --- |
| CN(C(=O)c1ccccc1)c1ccnc(N2CCc3ccccc32)n1 [Compound 104] | > 1000 mg/kg | 5.2 ± 2.9% | 3/50 |  |  |  | Ratio of the number of cells having neurites with a length of at least two times as large as the diameter of cells to the total number of cells (Mouse neuro 2a cells; 0.03 mM): 3.4 ± 1.0%; The number of cells in which neurites appeared/Total number of cells ([1]; 24 hour, 0.5 mM): 4/50; The number of cells in which neurites appeared/Total number of cells ([1]; 48 hour, 0.2 mM): 4/50; The number of cells in which neurites appeared/Total number of cells ([1]; 48 hour, 0.5 mM): 3/50 |
| CN(C(=O)c1ccc(C(F)(F)F)cc1)c1ccnc(N2CCC(c3ccccc3)CC2)n1.Cc1ccc(S(=O)(=O)O)cc1 [Compound 112, 4-(N-methyl-4-trifluoromethylbenzoylamino)-2-(4-phenylpiperidino) pyrimidine p-toluenesulfonate] | > 1000 mg/kg | 43.3 ± 1.8% |  | 21.6 ± 3.3% | 2/50 |  | Ratio of the number of cells having neurites with a length of at least two times as large as the diameter of cells to the total number of cells (Mouse neuro 2a cells; 0.03 mM): 5.9 ± 0.9%; Ratio of the number of cells having neurites with a length of at least two times as large as the diameter of cells to the total number of cells (Mouse neuro 2a cells; 1 mM): 10.0 ± 3.8%; The number of cells in which neurites appeared/Total number of cells ([1]; 24 hour, 0.1 mM): 3/50 |
| COC(=O)c1ccc(C(=O)N(C)c2ccnc(N3CCC(c4ccccc4)CC3)n2)cc1 [Compound 120] |  | 8.6 ± 5.5% | 3/50 |  |  | > 1000 mg/kg | Ratio of the number of cells having neurites with a length of at least two times as large as the diameter of cells to the total number of cells (Mouse neuro 2a cells; 0.03 mM): 12.6 ± 1.6%; The number of cells in which neurites appeared/Total number of cells ([1]; 48 hour, 0.2 mM): 3/50 |
| CN(C(=O)c1ccc(C#N)cc1)c1ccnc(N2CCC(c3ccccc3)CC2)n1 [Compound 128] | > 1000 mg/kg | 4.3 ± 1.6% |  | 4.8 ± 1.2% | 4/50 |  | The number of cells in which neurites appeared/Total number of cells ([1]; 24 hour, 0.5 mM): 3/50 |
| CN(C(=O)c1ccc(S(=O)(=O)F)cc1)c1ccnc(N2CCC(c3ccccc3)CC2)n1 [Compound 136] | > 1000 mg/kg | 5.4 ± 1.7% |  | 10.3 ± 0.2% |  |  | Ratio of the number of cells having neurites with a length of at least two times as large as the diameter of cells to the total number of cells (Mouse neuro 2a cells; 0.03 mM): 5.2 ± 1.8%; Ratio of the number of cells having neurites with a length of at least two times as large as the diameter of cells to the total number of cells (Mouse neuro 2a cells; 1 mM): 11.8 ± 1.4%; The number of cells in which neurites appeared/Total number of cells ([1]; 24 hour, 0.5 mM): 4/50; The number of cells in which neurites appeared/Total number of cells ([1]; 48 hour, 0.2 mM): 3/50 |
| CN(C(=O)c1ccc2ccccc2c1)c1ccnc(N2CCC(c3ccccc3)CC2)n1 [Compound 144] |  | 4.2 ± 0.6% |  |  | 4/50 |  | Ratio of the number of cells having neurites with a length of at least two times as large as the diameter of cells to the total number of cells (Mouse neuro 2a cells; 0.01 mM): 5.1 ± 0.9%; The number of cells in which neurites appeared/Total number of cells ([1]; 24 hour, 0.5 mM): 3/50 |
| CN(C(=O)c1ccc(C=O)cc1)c1ccnc(N2CCC(c3ccccc3)CC2)n1 [Compound 152] |  |  |  |  | 3/50 | > 1000 mg/kg | Ratio of the number of cells having neurites with a length of at least two times as large as the diameter of cells to the total number of cells (Mouse neuro 2a cells; 0.01 mM): 5.2 ± 0.4%; Ratio of the number of cells having neurites with a length of at least two times as large as the diameter of cells to the total number of cells (Mouse neuro 2a cells; 0.03 mM): 16.5 ± 1.8%; The number of cells in which neurites appeared/Total number of cells ([1]; 24 hour, 0.1 mM): 2/50 |
| CN(C(=O)C12CC3CC(CC(C3)C1)C2)c1ccnc(N2CCC(c3ccccc3)CC2)n1 [Compound 160] |  | 11.4 ± 1.3% | 2/50 | 23.5 ± 2.9% | 3/50 | 500 to 1000 mg/kg | Ratio of the number of cells having neurites with a length of at least two times as large as the diameter of cells to the total number of cells (Mouse neuro 2a cells; 0.03 mM): 5.1 ± 1.2%; Ratio of the number of cells having neurites with a length of at least two times as large as the diameter of cells to the total number of cells (Mouse neuro 2a cells; 1 mM): 20.7 ± 2.7% |
| CN(C(=O)c1ccc2c(c1)C(=O)OC2=O)c1ccnc(N2CCC(c3ccccc3)CC2)n1 [Compound 168] |  |  | 3/50 | 8.7 ± 2.0% |  | > 1000 mg/kg | Ratio of the number of cells having neurites with a length of at least two times as large as the diameter of cells to the total number of cells (Mouse neuro 2a cells; 1 mM): 14.6 ± 3.7%; The number of cells in which neurites appeared/Total number of cells ([1]; 48 hour, 0.5 mM): 3/50 |
| CN(C(=O)c1ccccc1)c1ccnc(N2Cc3ccccc3C2)n1 [Compound 184] |  | 0.9 ± 0.8% |  |  | 3/50 |  | Ratio of the number of cells having neurites with a length of at least two times as large as the diameter of cells to the total number of cells (Mouse neuro 2a cells; 0.01 mM): 0.5 ± 0.8%; The number of cells in which neurites appeared/Total number of cells ([1]; 24 hour, 0.1 mM): 2/50 |
| O=CN1CCN(c2ccnc(N3CCCCC3)n2)CC1 [Compound 223] | > 1000 mg/kg |  |  |  |  |  |  |
| O=C(O)/C=C\C(=O)O.O=CN1CCN(c2ccnc(N3CCCCC3)n2)CC1 [Compound 224, 4-(N-formylpiperazino)-2-piperidino pyrimidine maleate] |  | 8.9 ± 1.5% |  | 21.4 ± 3.3% | 3/50 |  | The number of cells in which neurites appeared/Total number of cells ([1]; 24 hour, 0.1 mM): 2/50 |
| O=C(c1ccccc1)N1CCN(c2ccnc(N3CCCCC3)n2)CC1 [Compound 232] |  |  | 3/50 |  | 4/50 | > 1000 mg/kg |  |
| CC(=O)N1CCN(c2ccnc(N3CCCCC3)n2)CC1 [Compound 240] |  |  |  |  |  | > 1000 mg/kg | The number of cells in which neurites appeared/Total number of cells ([1]; 24 hour, 0.1 mM): 3/50; The number of cells in which neurites appeared/Total number of cells ([1]; 24 hour, 0.5 mM): 5/50; The number of cells in which neurites appeared/Total number of cells ([1]; 48 hour, 0.2 mM): 5/50; The number of cells in which neurites appeared/Total number of cells ([1]; 48 hour, 0.5 mM): 6/50 |
| O=C(c1ccccc1)N1CCN(c2ccnc(N3CCC(c4ccccc4)CC3)n2)CC1 [Compound 248] | > 1000 mg/kg |  | 3/50 |  | 3/50 |  |  |
| CC(=O)N1CCN(c2ccnc(N3CCC(c4ccccc4)CC3)n2)CC1 [Compound 256] | > 1000 mg/kg |  | 3/50 |  | 4/50 |  | The number of cells in which neurites appeared/Total number of cells ([1]; 24 hour, 0.1 mM): 3/50; The number of cells in which neurites appeared/Total number of cells ([1]; 48 hour, 0.2 mM): 3/50 |
| CN(C(=O)c1ccc(O)cc1)c1ccnc(N2CCC(c3ccccc3)CC2)n1 [Compound 264] | > 1000 mg/kg |  |  |  |  |  | The number of cells in which neurites appeared/Total number of cells ([1]; 24 hour, 0.5 mM): 3/50; The number of cells in which neurites appeared/Total number of cells ([1]; 48 hour, 0.2 mM): 3/50 |
| O=C1CCCN1c1ccnc(N2CCCCC2)n1 [Compound 272] |  | 10.5 ± 2.5% |  | 25.1 ± 2.7% |  | 250 to 500 mg/kg | Ratio of the number of cells having neurites with a length of at least two times as large as the diameter of cells to the total number of cells (Mouse neuro 2a cells; 0.01 mM): 5.4 ± 0.4%; Ratio of the number of cells having neurites with a length of at least two times as large as the diameter of cells to the total number of cells (Mouse neuro 2a cells; 1 mM): 20.4 ± 4.9% |
| O=C1CCCN1c1ccnc(N2CCC(c3ccccc3)CC2)n1 [Compound 280] | > 1000 mg/kg | 6.9 ± 1.4% |  | 7.5 ± 1.1% |  |  | Ratio of the number of cells having neurites with a length of at least two times as large as the diameter of cells to the total number of cells (Mouse neuro 2a cells; 0.01 mM): 7.1 ± 1.7%; Ratio of the number of cells having neurites with a length of at least two times as large as the diameter of cells to the total number of cells (Mouse neuro 2a cells; 1 mM): 8.1 ± 6.3% |
| O=C1CCCCN1c1ccnc(N2CCCCC2)n1 [Compound 288] | > 1000 mg/kg |  |  |  |  |  |  |
| O=C1CCCCN1c1ccnc(N2CCC(c3ccccc3)CC2)n1 [Compound 296] | > 1000 mg/kg |  |  |  |  |  |  |
